# US9243037B2, “Gramicidin a mutants that function as antibiotics with improved solubility and reduced toxicity” (Trustees of Boston College, priority 2011, dated 2016)
# “Also recorded” adds a separate entry of the source. Where two headings read alike, the source gives them in different places. Marks after values point to notes of the source that are not given here.
# Tests used:
# [1] = tested on: human red blood cells (hRBCs); test: Haemoglobin release from human red blood cells; type: cell-based
# Protocol: Fresh human red blood cells (hRBCs) were centrifuged at 3500 rpm and washed with PBS buffer until the supernatant was clear. The hRBCs were then resuspended and diluted to a final concentration of 1% (v/v) in PBS and used immediately. 15 μL of serial dilution (2-fold) of peptides in DMSO or DMSO alone as a negative control were added to 1.5 mL of hRBCs in PBS. The resulting mixture was gently shaken to mix well and incubated at 37° C. for 1 hr, followed by centrifugation at 3500 rpm for 10 min using tabletop centrifuge. Aliquots (50 μL) of the supernatant (in triplicates) were transferred into a sterile 96-well plate containing 50 μL of H2O in each well. Release of hemoglobin was monitored at 415 nm using a microtiter plate reader. Percentage hemolysis was calculated using percentage hemolysis=100·(A415, peptide-A415,DMSO)/(A415, complete hemolysis-A415, DMSO), where complete hemolysis is achieved by mixing hRBCs with 1% TritonX-100.
# [2] = tested on: human red blood cells (hRBCs); test: K+ leakage from hRBCs (flame atomic emission); type: cell-based
# Protocol: The rest of supernatant (1.2 mL) from each sample prepared as described in the hemoglobin leakage assay was transferred into a new sterile eppendorf tube and subject to the K+ concentration measurement using a flame-atomic emission spectrometer (λem=766.5 nm, Perkin Elmer Atomic absorption Spectrometer 3100, acetylene/air flame). Three readings were taken for each sample and averaged as final results. The fraction of K+ leakage from hRBCs was calculated as percentage K+ leaked=100·(I776.5,peptide−I776.5,DMSO)/(I776.5,complete lysis−I776.5,DMSO).
# HeLa = test: MTT toxicity assay; type: cell-based, human; details: HeLa; in words
# Protocol: (§1) Toxicity of gA-WT and gA-5 was tested against two human cancer cell lines, HeLa and MCF-7 (gifts from Professor Eranthie Weerapana at Boston College) by using the MTT assay as described in the protocol provided by Invitrogen.[5] HeLa cells (in DMEM high glucose media with 10% FBS, 1% Pen/Strep, 37° C., 5% CO2) and MCF-7 cells (in RPMI media with 10% FBS and 1% Pen/Strep, 37° C., 5% CO2) were grown to about 80% confluent before removed from the surface of a 20 cm petri-dish with […] with EDTA (3-5 mins, 37° C., 5% CO2). Cells were pelleted (3,500 rpm, 5 mins at 4° C.), and plated at 15,000 cells per well (100 μL per well), then incubated for 48 hrs before peptide addition.
# (§2) Stock solutions of gA in DMSO with varied concentrations were prepared so that for each peptide concentration the total volume of DMSO addition was kept constant at 1% (v/v). For each peptide concentration, samples were set up as four replicates. Control wells were loaded with 1 μL of DMSO. After overnight incubation, cells were washed once with PBS before being incubated for 4 hrs with 110 μL of 12 mM 3-(4,5-Dimethylthiazol-2-yl)-2,5-diphenyltetrazolium bromide (MTT) dissolved in RPMI media. The MTT assay was quenched with 100 μL of 10% SDS in 0.01 M HCl and allowed to incubate overnight before absorbance at 570 nm was recorded. Wells were averaged and standard deviations determined for each peptide concentration. Data were normalized to the DMSO control to give % cell survival (see FIG. 3).
# MCF-7 = test: MTT toxicity assay; type: cell-based, human; details: MCF-7; in words
# Protocol: as §1, §2
# [3] = tested on: Bacillus subtilis (ATCC 663); details: for MIC relative to wild-type Gramicidin A: B. subtilis
# [4] = tested on: Staphylococcus aureus (ATCC 6538); details: for MIC relative to wild-type Gramicidin A: S. Aureus
# [5] = tested on: Streptococcus pyogenes (ATCC 19615); details: for MIC relative to wild-type Gramicidin A: S. Pyogenes
# [6] = cited from earlier work
# physchem = type: physicochemical
# Protocol: Peptide solubility in 10 mM HEPES buffer with 1% DMSO was measured by monitoring tryptophan absorbance. A concentrated (6.0-8.0 mM) peptide stock solution in DMSO was diluted 100 times (5 μL of the stock into 500 jtl of 10 mM HEPES buffer, pH 7.0). The mixture was sonicated for 30 mins and then subject to centrifugation (14,000 rpm, 10 mins) to remove possible precipitate. The supernatant (400 μL) was transferred to a quartz cuvette and the peptide concentration was determined by tryptophan absorbance at 280 nm (ε=22760 M−1 cm-1). The UV/Vis spectra of the supernatant can be seen in FIG. 1 and FIG. 5.
# FIG. 2 = test: FIG. 2
# Protocol: Table printed on a drawing sheet, FIG. 2
# Water solubility of gA variants is determined by Trp absorbance at 280 nm and summarized in the inserted table. Buffer used: 10 mM HEPES containing 1% DMSO. The solubility of gA-WT was obtained from reference.
# First reader's note: Saturation concentration (water solubility); the gA-WT cell carries its own unit (nM), and the marker [a] is not explained on the sheet.
# bacteria = test: Antibacterial activity, strain not singled out; details: in words
# Protocol: Minimal Inhibitory Concentrations (MICs) were measured against Gram-negative Escherichia coli (BL21) and Gram-positive Bacillus subtilis (ATCC 663), Staphylococcus aureus (ATCC 6538), Streptococcus pyogenes (ATCC 19615) using the broth microdilution method.[2] Specifically, bacteria from a single colony were grown overnight in LB broth at 37° C. with agitation. An aliquot was taken and diluted (1:50 for E. coli, 1:20 for B. subtilis, 1:200 for S. aureus, 1: 10 for S. pyogenes) in fresh broth and cultured for another ˜3 hours until the cells reach mid-logarithmic phase (OD590-0.6). The cells were diluted to a concentration of ˜5×10^5 Colony Forming Units/ml (CFU/ml) and the bacteria suspension (200 μL) was added to each well of a sterile 96-well plate. Serial diluted (2-fold) peptides in DMSO (2 μL) were added in triplicates. The plates were shaken for 30 seconds to mix the peptide solution well with the broth, and then incubated at 37° C. overnight before the absorbance at 590 nm was monitored using a microtiter plate reader (SPECTRAMAX M5, Molecular Devices, Sunnyvale, Calif.). The viability of the bacteria was normalized as % survival=(ODpep,bac−ODbroth only)/(ODDMSO, bac-ODbroth only)×100%.
# [7] = Peptide binding onto membranes (Trp fluorescence)
# [8] = Peptide binding onto membranes (Trp fluorescence); details: negatively charged POPC/POPG vesicles; in words
# [9] = K+ release from liposomes, lipid not specified; type: biochemical; details: in words
# Protocol: With the D-Lys residues incorporated towards the C-terminus, the gA peptide analogs described herein display amphipathic sequences. Since many amphipathic peptides are known to cause membrane damage through a detergent-like mechanism instead of forming specific channels,[19] it was further examined whether it is the case with the gA peptide analogs provided herein. Toward this end, the ion selectivity of gA-3, 4, and 5 was assessed by using liposomes encapsulating K+ and Tb3+ respectively. […] The wild type like channel structure of the D-Lys mutants is further supported by the fact that gA-5 and gA-WT share similar signatures in their circular dichroism spectra (FIG. 11). This exclusive leakage of monovalent cations presents a great advantage of the gA analog peptides described herein in comparison to the majority of AMPs, which often cause catastrophic membrane collapse to release all bacterial cellular content, leading to potential complications of over-stimulated immune response.
# The K+ leakage from liposomes was determined by a potassium ion selective electrode (K-ISE, Cole-Parmer, Vernon Hills, Ill.). The electrode was calibrated each day before experiments. A liposome solution in Buffer A (2 mL, 500 μM POPC or POPC/POPG⊃10 mM HEPES, 150 mM KCl, pH 7.0) was stirred at constant speed and peptide at various concentration (1 μL in DMSO) was added accumulatively. Three minutes after each peptide addition, the K+ concentration was measured and reported as the K-ISE potential. At the end of each experiment, gA-WT stock (1 μL, 1 mM) was added to induce 100% K+ leakage. The potential reported by the K-ISE was plotted against peptide concentration after the background noise (caused by DMSO addition) was subtracted and normalized to 0-100%.
# [10] = Tb3+ leakage from liposomes, lipid not specified; type: biochemical; details: at peptide concentrations causing complete K+ release; in words
# [11] = Table 2, standard micro-dilution
smiles,measurement,setting,value
"CC(C)C[C@@H](NC(=O)[C@H](C)NC(=O)CNC(=O)[C@@H](NC=O)C(C)C)C(=O)N[C@@H](C)C(=O)N[C@@H](C(=O)N[C@H](C(=O)N[C@@H](C(=O)N[C@@H](Cc1c[nH]c2ccccc12)C(=O)N[C@H](CC(C)C)C(=O)N[C@@H](Cc1c[nH]c2ccccc12)C(=O)N[C@H](CC(C)C)C(=O)N[C@@H](Cc1c[nH]c2ccccc12)C(=O)N[C@H](CC(C)C)C(=O)N[C@@H](Cc1c[nH]c2ccccc12)C(=O)NCCO)C(C)C)C(C)C)C(C)C (racemic) [gA-WT, formyl-V-G-A-dL-A-dV-V-dV-W-dL-W-dL-W-dL-W-NHCH2CH2OH, reference compound]",HC50 (50% haemoglobin leakage relative to 1% TritonX-100),"[1]; Table 2, hRBCs",5 µM
same,Toxicity HC50,"[1]; Table 6, hRBCs, preliminary",5 µM
same,HC50,[1]; Table 8,5
same,KC50 (50% K+ ion leakage relative to 1% TritonX-100),"[2]; Table 2, hRBCs",0.00014 µM
same,Toxicity KC50,"[2]; Table 6, hRBCs, preliminary",0.00014 µM
same,KC50,[2]; hRBCs,140 pM
same,"toxicity, cell survival (MTT)",HeLa,low μM potency
same,"toxicity, cell survival (MTT)",MCF-7,low μM potency
same,MICs B. Subtilius,[3]; [11],2.5 µM
same,Minimum Inhibition Concentration B. Subtilius,[3]; Table 6,2.5 µM
same,MICs S. Aureus,[4]; [11],2.5 µM
same,Minimum Inhibition Concentration S. Aureus,[4]; Table 6,2.5 µM
same,MICs S. Pyogenes,[5]; [11],0.16 µM
same,Minimum Inhibition Concentration S. Pyogenesis,[5]; Table 6,0.16 µM
same,solubility in water,"[6]; wild type, from reference [8]",< 0.05 µM
"CC(C)C[C@@H](NC(=O)[C@H](C)NC(=O)CNC(=O)[C@@H](NC=O)C(C)C)C(=O)N[C@@H](C)C(=O)N[C@@H](C(=O)N[C@H](C(=O)N[C@@H](C(=O)N[C@@H](Cc1c[nH]c2ccccc12)C(=O)N[C@H](CCCNC(=N)N)C(=O)N[C@@H](Cc1c[nH]c2ccccc12)C(=O)N[C@H](CCCNC(=N)N)C(=O)N[C@@H](Cc1c[nH]c2ccccc12)C(=O)N[C@H](CCCNC(=N)N)C(=O)N[C@@H](Cc1c[nH]c2ccccc12)C(=O)NCCO)C(C)C)C(C)C)C(C)C (racemic) [gA-6, formyl-V-G-A-dL-A-dV-V-dV-W-dR-W-dR-W-dR-W-NHCH2CH2OH]",HC50 (50% haemoglobin leakage relative to 1% TritonX-100),[1],20 µM
same,"water solubility, fold higher than wild-type Gramicidin A",physchem,~800 fold
same,MICs B. Subtilius,[3]; ATCC 663,2.5~5 μM
same,MIC relative to wild-type Gramicidin A,[3],equivalent to or ˜2-fold higher
same,MIC relative to wild-type Gramicidin A,[4],much higher MIC
same,MICs S. Aureus,[4]; [11],>10 ^[e] μM
same,MICs S. Pyogenes,[5]; ATCC 19615,1.25 µM
same,MIC relative to wild-type Gramicidin A,[5],equivalent to or ˜2-fold higher
same,SAT. CONC/μM,FIG. 2,43 µM
same,antibacterial activity / MIC,bacteria,low μM potency
"CC(C)C[C@@H](NC(=O)[C@H](C)NC(=O)CNC(=O)[C@@H](NC=O)C(C)C)C(=O)N[C@@H](C)C(=O)N[C@@H](C(=O)N[C@H](C(=O)N[C@@H](C(=O)N[C@@H](Cc1c[nH]c2ccccc12)C(=O)N[C@H](CCCCN)C(=O)N[C@@H](Cc1c[nH]c2ccccc12)C(=O)N[C@H](CCCCN)C(=O)N[C@@H](Cc1c[nH]c2ccccc12)C(=O)N[C@H](CC(C)C)C(=O)N[C@@H](Cc1c[nH]c2ccccc12)C(=O)NCCO)C(C)C)C(C)C)C(C)C (racemic) [gA-4, formyl-V-G-A-dL-A-dV-V-dV-W-dK-W-dK-W-dL-W-NHCH2CH2OH]",haemoglobin leakage from hRBCs,[1],not enough to cause 50% haemoglobin leakage
same,HC50 (50% haemoglobin leakage relative to 1% TritonX-100),[1]; red cells of human,>100 µM
same,KC50 (50% K+ ion leakage relative to 1% TritonX-100),[2],5~10 μM
same,"peptide concentration for 50% K+ ion leakage, fold greater than wild-type Gramicidin A",[2],over 10^5 fold
same,"water solubility, fold higher than wild-type Gramicidin A",physchem,~740 fold
same,reduced affinity to POPC vesicles,[7],~70 folds
same,apparent dissociation constant (Kd) / binding,[8],comparable to that of gA-WT
same,K+ release from LUVs,[9],potent activity in K+ release
same,Tb3+ leakage from LUVs,[10],essentially no Tb3+ leakage; also recorded: behave similarly to gA-5
same,MICs B. Subtilius,[3]; ATCC 663,2.5 µM
same,MIC relative to wild-type Gramicidin A,[3],equivalent to or ˜2-fold higher
same,MICs S. Aureus,[4]; ATCC 6538,5 µM
same,MIC relative to wild-type Gramicidin A,[4],equivalent to or ˜2-fold higher
same,MICs S. Pyogenes,[5]; ATCC 19615,0.16 µM
same,MIC relative to wild-type Gramicidin A,[5],equivalent to or ˜2-fold higher
same,"Sat. Conc, Lys series","[6]; Trp absorbance @ 280 nm, 10 mM PBS, pH 7.0, 1% DMSO, values taken from ref",39 µM
